# Measurements taken from paper PMC6081452, “Downstream Products are Potent Inhibitors of the Heparan Sulfate 2-O-Sulfotransferase” (Scientific Reports, 2018).
# Molecular target: T1, non-glyc-HS2ST WT (Gallus gallus, UniProt Q76KB1)
# T1 construct: made in house; host or cells: E. coli Origami B (DE3)
# T1 sequence (Q76KB1 69-356 limits assumed): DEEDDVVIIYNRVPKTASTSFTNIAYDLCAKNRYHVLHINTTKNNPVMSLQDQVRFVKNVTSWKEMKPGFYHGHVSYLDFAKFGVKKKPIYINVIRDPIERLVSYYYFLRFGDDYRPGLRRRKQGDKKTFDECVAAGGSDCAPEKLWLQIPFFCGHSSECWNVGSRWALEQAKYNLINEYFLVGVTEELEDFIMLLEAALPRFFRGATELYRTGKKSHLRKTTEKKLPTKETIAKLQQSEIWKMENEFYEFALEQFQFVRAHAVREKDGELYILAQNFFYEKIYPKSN
# Assay: Inhibition assay of the reaction between HS2ST and completely de-O-sulfated N-sulfated heparin ([35S]PAPS)
# Assay type: biochemical, chicken
# Settings: for IC50: p-nitrophenol-terminated hexasaccharides, substrate CDNS heparin 1 µg, [35S]PAPS, 37 °C, 1 h, n = 2 or 3
# Method: Inhibition assays were thus performed with non-glyc-HS2ST and all compounds except for 1, the enzymatic substrate. […] Compound 5 appeared to inhibit at least as well as the product of the reaction (2); however, the IC50 was not reached even at the maximum substrate concentration (1 mM) for either 2 or 5. The addition of a single sulfate moiety enhanced the potency of the glycan as an inhibitor by ~10-fold (compare 3 and 4). The presence of both 2- and 3-O-sulfate moieties in the hexasaccharide (4) enhanced its inhibitory potential by approximately 100-fold relative to 5. These in vitro inhibition assays indicate that downstream products of the HS biosynthetic pathway could interfere with HS2ST catalysis in vivo.
# The same glycan sequences were synthesized[62] for the inhibition assay as were used for the binding studies (Supplementary Table 1), except these terminated in p-nitrophenol rather than the PEG4-Biotin linker. The reaction mixture contained Tris pH 7.5 50 mM, 0.3 µg non-glyc-HS2ST WT, 0.08 nmol ^35S-labeled 3′-phosphoadenosine 5′-phosphosulfate ([^35S] PAPS) (3 × 10^4 cpm), completely de-O-sulfated N-sulfated heparin (CDNS heparin) 1 µg, and either compound 2, 3, 4 (0, 1, 2, 4, 8, and 16 µg) or 5 (2, 20, 60, and 160 µg) in a total volume of 0.1 ml. After incubation at 37 °C for 1 h, the reaction was quenched by adding 1 mL of 0.01% Triton X-100 buffer at pH 5.0 containing 150 mM NaCl, 50 mM NaOAc, 3 M urea and 1 mM ethylenediaminetetraacetic acid (EDTA). The samples were loaded on a small DEAE column (200 µl in size). The column was then washed five times with the same buffer, each time 1 ml. The column was further washed five times with 0.25 M NaCl in 0.001% Triton X-100 buffer each time 1 ml. The column was eluted with 1 ml of 1 M NaCl in 0.001% Triton X-100 buffer. The ^35S cpm of the eluted samples were tested the by a scintillation counter.
IC50,Enhancement of inhibitory potential relative to 5 (4 relative to 5),Enhancement of inhibitory potency by addition of a single sulfate moiety (compare 3 and 4) (4 versus 3),Substance
> 1000 µM,,,GlcNS6S-GlcA-GlcNS6S-GlcA-GlcNS6S-GlcA~ [Compound 5]
> 1000 µM,,,GlcNS-GlcA-GlcNS-IdoA2S-GlcNS-GlcA~ [Compound 2]
,approximately 100 fold,~ 10 fold,GlcNS6S-GlcA-GlcNS3S6S-IdoA2S-GlcNS6S-GlcA~ [Compound 4]
